Legend:
[1] = tested on: Streptococcus mutans ATCC 35668 biofilms; experiment: Immediate dispersal of stationary S. mutans biofilms, crystal violet, 1 minute treatment; assay type: cell-based; settings: 1.2% chlorhexidine, room temperature
Description: FIG. 11 depicts the immediate dispersal of Streptococcus mutans ATCC 35668 2-day old stationary biofilms treated with 100 μg/mL chitosan-arginine (43 kDa, 25% functionalized, 88% DDA, 2.28 PDI), water, or 1.2% Chlorhexidine. The biofilms were rinsed, stained with crystal violet and treated for 1 minute and rinsed.
The S. mutans biofilms were grown in 12-well untreated tissue culture plates containing BHI media supplemented with 1% sucrose for approximately 3 days. The biofilms were rinsed with water three times and stained with crystal violet for 2 minutes then rinsed three times (FIG. 11, ‘Before’). Water, 100 μg/ml chitosan-arginine or 1.2% chlorhexidine were used to treat each biofilm for 1 minute at room temperature (FIG. 11, ‘During’).

[2] = tested on: Streptococcus mutans (ATCC 35668); experiment: Synergy of chitosan-arginine with chlorhexidine, remaining CFU after 1 hour; assay type: cell-based
Description: Solutions of both agents were prepared at 4× their intended final concentration. Two concentrations for each agent are used for each assay and the drugs were combined in 4 ways: […] Controls of each drug alone as well as positive (S. mutans only) and negative (media only) controls were prepared. […] After incubation, the plates were centrifuged for 10 minutes at 4000 RPM on a microtiter plate rotor, before being resuspended, sonicated, diluted and plated on BHI for remaining CPU.

SMILES: [H]/N=C(\N/C(=N/[H])NCCCCCCNC(=N)NC(=N)Nc1ccc(Cl)cc1)Nc1ccc(Cl)cc1 [Chlorhexidine]
- biofilm after 1 minute treatment and rinsing [1]: removed from the surface
- Log CFU reduction beyond most active agent ([2]; Chlorhexidine 0.00625% alone (C/A 0 μg/ml)): 1.9 Log CFU
- Log CFU reduction beyond most active agent ([2]; Chlorhexidine 0.0125% alone (C/A 0 μg/ml)): 1.8 Log CFU

— patent publication US20180049965A1, “ORAL CARE METHODS AND COMPOSITIONS UTILIZING CHITOSAN-DERIVATIVE COMPOUNDS” (Synedgen Inc., priority 2009, published 2018)
